ChEMBL document CHEMBL1201862, “PubChem BioAssay data set” (2004)
Calls of active or inactive are those of the source. Cut-off read from the data, not from the text of the source: actives have a measured IC50 and inactives only a lower limit.

Molecular target: Envelope glycoprotein gp160 (Human immunodeficiency virus 1, UniProt Q6QLK5)
Test: inhibitors of HIV fusion peptide binding, primary screen, biochemical, uHTS, fluorescence dequenching (AID 1986)

Envelope glycoprotein gp160, sequence (Q6QLK5 whole entry, the tested form may be a part): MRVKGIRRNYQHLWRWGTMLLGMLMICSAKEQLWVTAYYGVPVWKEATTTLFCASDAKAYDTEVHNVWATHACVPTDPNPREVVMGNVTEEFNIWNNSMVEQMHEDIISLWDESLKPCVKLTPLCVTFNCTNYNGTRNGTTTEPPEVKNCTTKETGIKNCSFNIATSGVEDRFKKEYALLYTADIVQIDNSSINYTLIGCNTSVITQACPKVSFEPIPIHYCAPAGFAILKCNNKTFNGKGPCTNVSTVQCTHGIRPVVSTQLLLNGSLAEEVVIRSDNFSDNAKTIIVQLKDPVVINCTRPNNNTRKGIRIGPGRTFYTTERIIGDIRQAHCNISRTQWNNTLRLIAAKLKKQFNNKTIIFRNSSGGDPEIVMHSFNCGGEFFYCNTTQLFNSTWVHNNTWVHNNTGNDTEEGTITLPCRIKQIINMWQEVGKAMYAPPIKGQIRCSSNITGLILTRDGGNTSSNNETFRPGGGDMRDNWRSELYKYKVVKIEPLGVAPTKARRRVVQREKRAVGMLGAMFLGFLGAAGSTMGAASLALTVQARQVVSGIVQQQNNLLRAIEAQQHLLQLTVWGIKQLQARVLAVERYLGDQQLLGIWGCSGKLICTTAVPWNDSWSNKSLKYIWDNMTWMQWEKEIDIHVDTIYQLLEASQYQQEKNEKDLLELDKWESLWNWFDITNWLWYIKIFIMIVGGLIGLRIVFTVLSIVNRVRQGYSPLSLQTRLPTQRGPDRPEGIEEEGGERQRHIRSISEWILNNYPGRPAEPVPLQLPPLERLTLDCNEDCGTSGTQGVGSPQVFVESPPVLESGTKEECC

Question: With Cc1ccc(N2C(=O)/C(=C\Nc3ccccc3-c3nnc(S)nc3O)c3ccccc3C2=O)c(C)c1 as the compound, how does the IC50 read?
Answer: 23.9 µM (active)
